Assay results reported in US12082933B2, “Methods of using brain temporal dynamics” (priority 2016, dated 2024).

What was measured:
[1] = Open-label 8-week escitalopram treatment trial, depressive symptoms by MADRS; format: in vivo, human; conditions: escitalopram 10-20 mg daily, week 8
Description: 95 participants were included in this study. Data were collected as part of the CAN-BIND 1 project (Lam et al., 2016). Participants were outpatients aged 18-60 years of age, and met DSM-IV-TR (2000) criteria for major depressive episode (MDE) in MDD, confirmed by the Mini international Neuropsychiatric inventory (MINI) (Sheehan et al., 1998). Data were gathered across four study sites: University Health Network, Centre for Addiction and Mental Health in Toronto, Queen's University in Kingston, Ontario, Canada, and University of British Columbia in Vancouver, British Columbia, Canada. Study procedures were approved by research ethics institutional review boards at each site. All participants signed written informed consent prior to participation. At study enrollment, all participants were experiencing a MDE duration≥3 months with a Montgomery Asberg Depression Rating Scale (MAD RS) score≥24. All participants were free of psychotropic medications for at least 5 half-lives before baseline Visit 1. Participants were excluded if they had: 1) any Axis I diagnosis other than MDD, that was considered the primary diagnosis; 2) diagnosis of Bipolar Disorder Type I or II; 3) a significant Axis II diagnosis (borderline, antisocial); 4) high suicidal risk, 5) substance dependence/abuse in the past 6 months; 6) presence of significant neurological disorders, 7) head trauma, or 8) other unstable medical condition. Exclusionary criteria related to the medications included: having failed four or more adequate pharmacological interventions, having started psychological treatment within the past 3 months with the intent of continuing the treatment, previously having failed escitalopram treatment or showing intolerance to escitalopram, and being at risk for hypomanic switch (i.e. with a history of antidepressant induced hypomania). In addition, female participants who were pregnant or breastfeeding were excluded. […] The study period was eight weeks and participants were assessed with MADRS every 2 weeks starting from before administration of study medication (baseline). […]

[2] = Resting-state eyes closed EEG multi-scale entropy (MSE) during escitalopram treatment; format: in vivo, human
Description: Subjects were instructed to sit quietly in a testing room, while 8 minute of resting-state eyes closed EEG were recorded. Subjects were instructed to remain still, reduce eye blinks or movement to a minimum, and refrain from falling asleep.
Data were imported into MATLAB (The Math Works. Inc. Natick, MA, USA) for preprocessing. The open source EEGLAB toolbox version 12.0 (Delorme and Makeig, 2004) were used for data import. The EEG signals were epoched into segments of two seconds duration. Then a standardized custom-made and stream-lined open source software develop by our team, EEGERP toolbox (http:www.tmseeg.com/multisiteprojects), was used to preprocess the data in 6 steps as described elsewhere (Farzan et al., 2017). All data were brought down to sampling rate of 512 Hz for consistency across all sites, and average re-referenced in the final preprocessing step.
MSE was examined identical to a prior publication (Farzan et al., Brain 2016). […] First, for a given time series {xi,x2, . . . xN}, the multiple coarse-grained time series {y1^(τ), y2^(τ), . . . , yN^(τ)} at scale factor τ were calculated by averaging the data points within non-overlapping windows of increasing length τ. Each element of the coarse-grained time series yj^(τ), was calculated according to the equation:
[formula] […] Second, the degree of predictability was measured for each of the multiple coarse-grained time series {y1^(τ), y2^(τ), . . . , yN^(τ)} using SampleEn. SampleEn was calculated according to the equation: SampleEn(r,m,M)=−In(C(m+1)/C(m)) (2) where C(m) is the total number of pairs of in consecutive similar data points, C(m+1) is the total number of pairs of m+1 consecutive similar data points in the multiple coarse-grained time series. SampleEn quantifies the variability of time series by estimating the predictability of amplitude patterns across a time series. […] MSE was calculated for a 30 second continuous epoch.” […]

[3] = six months of treatment; specifically in younger adults; cited from earlier work

| SMILES | MADRS Post Week8 (mean +/− std) ([1]; All Groups (n = 95)) | MADRS Post Week8 (mean +/− std) ([1]; Non-responders (n = 50)) | MADRS Post Week8 (mean +/− std) ([1]; Responders (n = 45)) | Change in MSE pre (baseline) to post treatment (week 8) ([2]; non-responders) | Change in MSE at week 2 relative to pre treatment (baseline) ([2]; non-responders, scale factor>18, lateral frontal, fronto-temporal, parieto-occipital regions, clusters p<0.05) | Change in MSE pre (baseline) to post treatment (week 8) ([2]; responders, fronto-parietal brain regions, cluster p=0.09) | Effect on excess complexity (Lempel-Ziv Complexity) in depression [3] |
| --- | --- | --- | --- | --- | --- | --- | --- |
| CN(C)CCC[C@@]1(c2ccc(F)cc2)OCc2cc(C#N)ccc21 [Escitalopram] | 15.4 +/− 9.7 | 22.3 +/− 7.18 | 7.62 +/− 5.24 | No significant changes | reduction of MSE in coarse time-scales | reduction of MSE in fine time-scales | – |
| CN1CCN2c3ncccc3Cc3ccccc3C2C1 (stereo not shown) [mirtazapine] | – | – | – | – | – | – | normalized the excess complexity in depression |
